Read-outs that look alike come from different tables or passages of the source. Peptide text beside a SMILES is read from it. * marks the point of attachment. 5FAM = O=C1OC2(c3ccc(O)cc3Oc3cc(O)ccc32)c2ccc(C(=O)*)cc21
Columns and labels:
MARK2 [1] = biological target: MARK2 (Rattus norvegicus, UniProt O08679); test: Immunofluorescence of PAO-induced MARK2-mediated tau Ser262 phosphorylation in neurons; assay type: cell-based
[2] = system: rat primary cortical neurons
MARK2 [3] = biological target: MARK2 (Homo sapiens, UniProt Q7KZI7); test: Antibody-linked fluorescence polarization assay of tR1 phosphorylation by MARK2; assay type: biochemical; conditions: 10 μM FlutR1, MARK2, ATP, antibody versus absence of MARK2, ATP, or antibody
Sequence of MARK2 (Homo sapiens, UniProt Q7KZI7) (Q7KZI7 whole entry): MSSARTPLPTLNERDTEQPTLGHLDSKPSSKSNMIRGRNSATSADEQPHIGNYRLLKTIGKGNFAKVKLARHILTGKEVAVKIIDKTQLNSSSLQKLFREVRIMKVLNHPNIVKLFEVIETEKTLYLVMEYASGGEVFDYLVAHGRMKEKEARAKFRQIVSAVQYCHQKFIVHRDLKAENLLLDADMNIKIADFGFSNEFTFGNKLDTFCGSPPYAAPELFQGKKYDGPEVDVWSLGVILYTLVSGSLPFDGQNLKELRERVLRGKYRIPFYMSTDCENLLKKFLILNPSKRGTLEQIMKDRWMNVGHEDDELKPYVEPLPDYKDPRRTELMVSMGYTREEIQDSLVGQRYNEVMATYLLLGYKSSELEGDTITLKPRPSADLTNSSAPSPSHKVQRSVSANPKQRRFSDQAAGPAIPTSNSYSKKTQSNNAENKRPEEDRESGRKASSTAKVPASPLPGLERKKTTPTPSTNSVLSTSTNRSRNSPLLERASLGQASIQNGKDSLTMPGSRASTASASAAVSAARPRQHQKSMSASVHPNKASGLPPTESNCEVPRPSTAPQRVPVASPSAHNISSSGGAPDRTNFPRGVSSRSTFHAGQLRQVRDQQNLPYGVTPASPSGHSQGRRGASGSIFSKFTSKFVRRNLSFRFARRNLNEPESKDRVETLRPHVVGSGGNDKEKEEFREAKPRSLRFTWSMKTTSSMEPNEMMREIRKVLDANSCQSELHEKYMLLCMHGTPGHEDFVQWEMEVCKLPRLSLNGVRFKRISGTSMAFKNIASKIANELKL
Method: The ability for MARK2 to phosphorylate tR1 in vitro was further validated by incubating ^FlutR1 peptides with MARK2 and ATP and monitoring the fluorescence polarization of the solution following addition of antibodies specific for hTau pSer262 (FIG. 6C). In these experiments, ^FlutR1 peptides and MARK2 were incubated with and without ATP for 60 minutes at 32° C. in phosphorylation buffer. Following incubation, antibodies specific for hTau pSer262 were added to the reaction and allowed to incubate for an additional 60 minutes at room temperature. Due to the slower tumbling rate of an antibody-linked (and presumably phosphorylated) ^FlutR1 peptide, it is believed that the fluorescence polarization of the phosphorylated tR1 peptide would be higher than that of its un-phosphorylated counterpart.
Analysis of the activity of MARK2 proteins was performed in 60-μL phosphorylation buffer (50 mM Tris-HCl, pH 8.0, 5 mM MgCl2, 2 mM EGTA, 0.5 mM DTT, 0.5 mM benzamidine HCl, 0.5 mM PMSF) containing 100 μM ATP, 10 μM of ^FlutR1, and 10 nM MARK2. The reaction mixture was incubated at 32° C. for 1 hour. […] Fluorescence polarization was then measured using a SpectraMax M5e multi-mode plate reader (Molecular Devices, Sunnyvale, Calif.) in 384-well plates (#3575, Corning, Corning, N.Y.). […]

Sequence of MARK2 (Rattus norvegicus, UniProt O08679) (O08679 whole entry): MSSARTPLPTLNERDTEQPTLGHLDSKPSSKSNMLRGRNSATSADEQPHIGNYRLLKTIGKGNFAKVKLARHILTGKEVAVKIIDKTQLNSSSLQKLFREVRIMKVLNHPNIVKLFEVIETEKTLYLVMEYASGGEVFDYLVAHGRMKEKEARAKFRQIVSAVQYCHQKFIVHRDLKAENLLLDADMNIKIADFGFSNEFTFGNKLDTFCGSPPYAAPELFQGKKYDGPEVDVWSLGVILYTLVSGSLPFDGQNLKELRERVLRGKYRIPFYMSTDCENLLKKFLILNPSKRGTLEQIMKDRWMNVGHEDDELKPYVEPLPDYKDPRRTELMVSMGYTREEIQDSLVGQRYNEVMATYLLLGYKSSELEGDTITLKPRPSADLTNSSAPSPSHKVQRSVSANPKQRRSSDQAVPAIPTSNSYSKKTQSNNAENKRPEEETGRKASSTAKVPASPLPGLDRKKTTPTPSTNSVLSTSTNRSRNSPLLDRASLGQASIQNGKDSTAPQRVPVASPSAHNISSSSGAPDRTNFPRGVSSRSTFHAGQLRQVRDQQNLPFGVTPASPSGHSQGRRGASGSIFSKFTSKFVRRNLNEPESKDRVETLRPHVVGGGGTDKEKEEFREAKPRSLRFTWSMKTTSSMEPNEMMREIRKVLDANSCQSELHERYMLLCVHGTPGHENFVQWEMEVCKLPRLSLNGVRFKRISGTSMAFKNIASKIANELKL

How did the “effect of endosome disruptor alone on PAO-induced MARK2 mediated phosphorylation of tau” value (MARK2 [1]; without tR1, 5 μM PAO) turn out when `CO/C1=C\C(C)=C\[C@@H](C)[C@@H](O)[C@@H](C)C/C(C)=C/C=C/[C@H](OC)[C@@H]([C@@H](C)[C@@H](O)[C@H](C)[C@@]2(O)C[C@@H](O)[C@H](C)[C@@H](C(C)C)O2)OC1=O` [bafilomycin A1, reference compound] was run?
The value was “Neither bafilomycin A1 nor chloroquine treatments alone affected”.

How did the “effect of endosome disruptor alone on PAO-induced MARK2 mediated phosphorylation of tau” value (MARK2 [1]) turn out when `CCN(CC)CCCC(C)Nc1ccnc2cc(Cl)ccc12` (centres unmarked) [chloroquine, reference compound] was run?
The value was “Neither bafilomycin A1 nor chloroquine treatments alone affected”.

How did the “intracellular uptake (fluorescence)” value ([2]; 10 μM FlutR1 alone, 4 hours) turn out when `CC[C@H](C)[C@H](NC(=O)[C@H](CCCCN)NC(=O)[C@H](CO)NC(=O)[C@H](CCCCN)NC(=O)[C@@H](NC(=O)[C@H](CC(N)=O)NC(=O)c1ccc2c(c1)C(=O)OC21c2ccc(O)cc2Oc2cc(O)ccc21)C(C)C)C(=O)NCC(=O)N[C@@H](CO)C(=O)N[C@H](C(=O)N[C@@H](CCC(=O)O)C(=O)N[C@@H](CC(N)=O)C(=O)N[C@@H](CC(C)C)C(=O)N[C@@H](CCCCN)C(N)=O)[C@@H](C)O` [^FlutR1] (5FAM-NVKSKIGSTENLK-NH2) was run?
Its value is “distinct fluorescent puncta within the cell body and neurites”.

And the “intracellular distribution (fluorescence)” value ([2]; 10 μM FlutR1 with 50 nM Baf)?
The value was “no fluorescent puncta following treatment and diffuse green fluorescence within the cell soma”.

What about the “intracellular uptake (fluorescence)” value ([2]; 10 μM FlutR1 with 5 μM PAO) of the same compound?
Its value is “did not seem to affect the uptake”.

What about the “intracellular distribution (fluorescence)” value ([2]; 10 μM FlutR1 with 100 μM CLQ) of the same compound?
Its value is “significant loss of discrete fluorescent puncta”.

And the “intracellular uptake (fluorescence)” value ([2]; 10 μM FlutR1 with 10 mM sodium azide)?
The value was “significant loss of fluorescent puncta within the cell body and neurites”.

What about the “fluorescence polarization after addition of hTau pSer262 antibody” value (MARK2 [3]) of the same compound?
Its value is “polarization to be highest in solutions containing all reaction components”.
